In a melting point compilation (Tetko et al.):

Compared with `CC(C)NC(=O)C1CCCC(N)C1` (configuration not stated), `Nc1cnn(CC(=O)NC2CCCC2)c1` is lower in melting point: 126 to 128 °C for the first, 108 to 110 °C for the second.

First: Clc1ccc(NCc2ccccc2)cc1
Second: O=C(O)c1ccc(COc2ccccc2)o1
The melting point of the first is lower: 47 to 49 °C for the first, 169 to 171 °C for the second.

First: Cn1nnnc1SCC(=O)Nc1ccc(C(=O)O)cc1
Second: O=C(O)c1ccc(NC(=O)c2cccs2)cc1
The melting point of the first is lower: 190 to 192 °C for the first, 227 to 229 °C for the second.

First: O=C(O)C1CCN(c2ccc3c(c2)OCCO3)C1=O (configuration not stated)
Second: Cc1c[nH]c(=O)n1-c1ccc(C(=O)O)cc1
The melting point of the first is lower: 122 to 124 °C for the first, 285 to 287 °C for the second.

Compared with `Cc1ccccc1COc1ccccc1C(=O)O`, `O=C(O)c1ccccc1NS(=O)(=O)c1ccc(F)cc1` is higher in melting point: 103 to 105 °C for the first, 165 to 167 °C for the second.

First: Cc1nn(-c2ccc(Br)cc2)c(C)c1C(=O)O
Second: Nc1ccnn1Cc1ccc(Br)cc1
The melting point of the first is higher: 231 to 233 °C for the first, 97 to 99 °C for the second.

Compared with `Fc1cccc2c1CN=C1CCCN12`, `Cc1c(N)cccc1-n1cnnn1` is higher in melting point: 71 to 73 °C for the first, 124 to 126 °C for the second.

First: Cc1cccc(Cn2[nH]ccc2=NC(=O)CCl)c1
Second: COc1ccc(C)cc1NC(=O)c1cc2ccccc2cc1O
The melting point of the first is lower: 88 to 90 °C for the first, 178 to 180 °C for the second.

Compared with `CCOc1ccc(CO)cc1OCC`, `CCCOc1cc(C=O)ccc1OC` is lower in melting point: 37 to 39 °C for the first, 35 to 37 °C for the second.

`COCCOc1ccc(Cl)cc1S(N)(=O)=O` and `CCOc1ccc(S(=O)(=O)N(C)C)cc1N` fall in the same range of melting point: 124 to 126 °C for the first, 124 to 126 °C for the second.

First: CN(CC(=O)O)c1ccc(C(F)(F)F)cc1C=O
Second: COC(=O)c1cccc(OCC(F)(F)F)c1
The melting point of the first is higher: 106 to 108 °C for the first, 56 to 58 °C for the second.

First: COC(=O)/C=C/c1ccc(S(=O)(=O)Cl)cc1
Second: CCOc1ccc(S(=O)(=O)NN)cc1
The melting point of the first is lower: 112 to 114 °C for the first, 114 to 116 °C for the second.

First: N#CC(N)Cc1ccccc1 (configuration not stated)
Second: Nc1ccccc1Cn1ccnc1
The melting point of the first is lower: 39 to 41 °C for the first, 81 to 83 °C for the second.

First: CC(=O)c1ccc(S(=O)(=O)CC(F)(F)F)cc1
Second: O=C(O)c1ccc(COCC(F)(F)F)cc1
The melting point of the first is lower: 102 to 104 °C for the first, 149 to 151 °C for the second.

Compared with `NC(=O)NCc1cccs1`, `CN1C(=O)CCC(C(N)=O)C1c1cccs1` (configuration not stated) is higher in melting point: 128 to 132 °C for the first, 179 to 181 °C for the second.

First: ClCc1csc(-c2ccsc2)n1
Second: O=C(O)c1csc(-c2ccc(O)cc2)n1
The melting point of the first is lower: 64 to 66 °C for the first, 214 to 216 °C for the second.

`NNC(=O)c1ccc(COc2cccc3cccnc23)cc1` and `Cc1cc(C)nc(SCc2ccc(C(=O)NN)cc2)n1` fall in the same range of melting point: 135 to 137 °C for the first, 135 to 137 °C for the second.

First: COc1cc(OC)c2c(Cl)ccnc2c1
Second: COc1cc(C(=O)O)cc(OC)c1C(C)C
The melting point of the first is lower: 92 to 94 °C for the first, 164 to 166 °C for the second.

First: O=C(O)c1c(Cl)ccc(S(=O)(=O)Cl)c1Cl
Second: O=C(O)C1CC1c1c(Cl)cccc1Cl (configuration not stated)
The melting point of the first is higher: 168 to 170 °C for the first, 144 to 146 °C for the second.

First: Cc1cc(Br)cc([N+](=O)[O-])c1O
Second: O=Cc1cc(O)cc(Br)c1O
The melting point of the first is lower: 89 to 91 °C for the first, 145 to 147 °C for the second.

First: COc1cc(-c2noc(CCl)n2)ccc1C
Second: Cc1ccc(NC(=O)C(C)Cl)cc1F (configuration not stated)
The melting point of the first is lower: 73 to 75 °C for the first, 102 to 104 °C for the second.

First: Cc1cc(C(C)(C)C)cc(C)c1S(=O)(=O)N1CCNCC1
Second: Nc1ccc(N2CCN(S(=O)(=O)C(F)F)CC2)cc1
The melting point of the first is higher: 124 to 126 °C for the first, 110 to 112 °C for the second.

First: O=C(O)CC(NC(=O)OCc1ccccc1)c1ccccc1 (configuration not stated)
Second: O=c1cc(-c2ccccc2)c2ccccc2[nH]1
The melting point of the first is lower: 124 to 126 °C for the first, 263 to 265 °C for the second.

Compared with `CN(C)C(=O)c1ccc(Cl)nn1`, `CC(C)COc1ncc(C(=O)O)cc1Cl` is lower in melting point: 137 to 139 °C for the first, 106 to 108 °C for the second.

First: Nc1ncc(C=NO)s1
Second: NC(=S)c1cncnc1N
The melting point of the first is higher: 211 to 213 °C for the first, 197 to 199 °C for the second.

First: COc1ncnc(Cl)c1N
Second: Nc1cnc(-c2ccccc2)nc1
The melting point of the first is lower: 70 to 72 °C for the first, 81 to 83 °C for the second.

First: O=C1NCCN2CCCCC12 (configuration not stated)
Second: O=c1[nH]ccn(C2CC2)c1=O
The melting point of the first is lower: 134 to 136 °C for the first, 161 to 163 °C for the second.

First: O=C(O)C1CCCN(C2=NS(=O)(=O)c3ccccc32)C1 (configuration not stated)
Second: O=C(O)c1ccccc1CN1C(=O)CNC1=O
The melting point of the first is higher: 205 to 207 °C for the first, 201 to 203 °C for the second.

Compared with `CCc1ccc2c(c1)C(=O)C(=O)N2`, `O=C1c2ccccc2C(=O)N1CCc1nn[nH]n1` is higher in melting point: 114 to 116 °C for the first, 256 to 258 °C for the second.

Compared with `O=C(O)c1cc2cc(Cl)c(Cl)cc2[nH]1`, `O=C(O)c1cc(-c2ccc(OC(F)F)cc2)nc2ccccc12` is lower in melting point: 321 to 323 °C for the first, 224 to 226 °C for the second.

First: CCOC(=O)c1c(C)oc2cc3c(C(=O)OCC)c(C)oc3cc12
Second: Cc1cc(NC(=O)C(C)SCC(=O)O)no1 (configuration not stated)
The melting point of the first is higher: 187 to 189 °C for the first, 125 to 127 °C for the second.

Compared with `N#Cc1cc(N)ccc1Cl`, `O=Cc1sc(Nc2ccccc2)nc1Cl` is higher in melting point: 127 to 129 °C for the first, 164 to 166 °C for the second.

First: Cc1ccccc1C1CNC(=O)C1 (configuration not stated)
Second: Cc1ccccc1CC(=O)NN
The melting point of the first is lower: 115 to 117 °C for the first, 129 to 131 °C for the second.

First: Brc1ccccc1-c1nc2cccnc2[nH]1
Second: CCOc1cc(C=O)ccc1OCCOc1ccc(F)cc1
The melting point of the first is higher: 196 to 198 °C for the first, 85 to 87 °C for the second.

First: O=C(O)C1CSCCS1 (configuration not stated)
Second: CC(C)(C)OC(=O)NCCC(=O)NN
The melting point of the first is lower: 58 to 60 °C for the first, 104 to 106 °C for the second.

First: NC(=S)Nc1ccccc1OC(F)(F)F
Second: CC1=NN(C)C(=O)C1C (configuration not stated)
The melting point of the first is higher: 156 to 158 °C for the first, 132 to 134 °C for the second.
